Assay results taken from PubChem BioAssay (NCI).
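Where inhibition never reached the appropriate level, the endpoint shown equals the highest concentration tested. Otherwise, values were interpolated linearly from a five-concentration, 48-hour dose response in 96-well plates. GI50 is the concentration that inhibits growth by half. The concentration for full growth arrest is given as TGI.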

Tests used:
Assay in all cases: NCI-60 cell line screen, 48 h
HCC-2998 colon = test system: HCC-2998 colon
BT-549 breast = test system: BT-549 breast
RPMI-8226 leukemia = test system: RPMI-8226 leukemia
CAKI-1 renal = test system: CAKI-1 renal
UACC-62 melanoma = test system: UACC-62 melanoma
MCF7 breast = test system: MCF7 breast
OVCAR-4 ovarian = test system: OVCAR-4 ovarian
TK-10 renal = test system: TK-10 renal
KM12 colon = test system: KM12 colon
NCI-H460 lung = test system: NCI-H460 lung

| SMILES | TGI (HCC-2998 colon) [µM] | TGI (BT-549 breast) [µM] | TGI (RPMI-8226 leukemia) [µM] | TGI (CAKI-1 renal) [µM] | TGI (UACC-62 melanoma) [µM] | TGI (MCF7 breast) [µM] | TGI (OVCAR-4 ovarian) [µM] | TGI (TK-10 renal) [µM] | TGI (KM12 colon) [µM] | TGI (NCI-H460 lung) [µM] | GI50 (BT-549 breast) [µM] | GI50 (RPMI-8226 leukemia) [µM] | GI50 (CAKI-1 renal) [µM] | GI50 (UACC-62 melanoma) [µM] | GI50 (MCF7 breast) [µM] | GI50 (OVCAR-4 ovarian) [µM] | GI50 (TK-10 renal) [µM] | GI50 (KM12 colon) [µM] | GI50 (NCI-H460 lung) [µM] |
| --- | --- | --- | --- | --- | --- | --- | --- | --- | --- | --- | --- | --- | --- | --- | --- | --- | --- | --- | --- |
| Nc1ccc(Cc2ccc(N)c(C(=O)O)c2)cc1C(=O)O | > 100 | > 100 | > 100 | > 100 | > 100 | > 100 | > 100 | > 100 | > 100 | > 100 | – | – | – | – | – | – | – | – | – |
| CC12OC(C(=O)C13CCC3)C1C(=O)c3c(O)ccc(O)c3C(=O)C12 (configuration not stated) | – | 16.4 | 3.11 | 2.62 | > 36.6 | 6.2 | > 100 | 1.57 | 10.5 | 29.3 | 5.97 | 0.336 | 0.817 | 3.56 | 1.49 | 4.06 | 0.587 | 2.91 | 7.46 |
| CC(NC(=O)c1ccc(OP(=O)(OCc2ccc([N+](=O)[O-])o2)N(C)CCCCCl)cc1)c1ccc(OCC2CCCCC2)c(C(N)=O)c1 (configuration not stated) | > 21.7 | 5.94 | 3.24 | > 58 | 7.39 | 17.1 | 17.7 | 60.9 | 13.5 | 14.5 | – | – | – | – | – | – | – | – | – |
| COc1cc(/C=C2\CC3C4CC[C@H]5C[C@@H](O)CC[C@]5(C)C4CC[C@]3(C)\C2=N\O)cc(OC)c1OC (some centres not stated) | 38.6 | 42.1 | 23.4 | 29.3 | 35 | 26.8 | 37.9 | > 100 | 56.7 | 82.9 | – | – | – | – | – | – | – | – | – |
| COc1cc(S(=O)(=O)Nc2ccc(-c3csc(/N=C\c4cccc(Oc5ccccc5)c4)n3)cc2)ccc1Cl | – | 93.1 | 75.6 | > 100 | 25.1 | 21.1 | > 100 | – | > 100 | – | – | – | – | – | – | – | – | – | – |
| O=C(NN1CCCCC1)c1cc2cc(CCl)ccc2oc1=O | 27.1 | 38 | 59 | 33.3 | 85.8 | > 100 | 36.4 | 35.5 | 49.4 | 31.1 | – | – | – | – | – | – | – | – | – |
| Nc1csc(-c2scc3c2OCCO3)c1N | 49.8 | 50.2 | > 100 | > 100 | 45.1 | 33.4 | > 100 | 87.3 | 56.5 | 73.7 | – | – | – | – | – | – | – | – | – |
| C/C=C/C(O)P(=O)(OC)OC (configuration not stated) | 0.774 | 1.8 | 0.514 | 1.85 | 0.785 | 1.01 | 1.51 | 1.45 | 0.936 | 0.93 | – | – | – | – | – | – | – | – | – |
| Cc1cc(=O)[nH]c(S(=O)(=O)NC(=O)Nc2cccc(Cl)c2)n1 | > 100 | > 100 | > 100 | > 22.3 | > 100 | > 100 | > 41.7 | > 100 | 32.3 | > 100 | – | – | – | – | – | – | – | – | – |
| COc1cc2cc[n+](C)c(Cc3ccc(Oc4cc(Cc5c6cc(OC)c(OC)cc6cc[n+]5C)ccc4OC)cc3)c2cc1OC | > 100 | > 100 | > 100 | > 100 | > 100 | > 100 | > 100 | > 100 | > 100 | > 100 | – | – | – | – | – | – | – | – | – |
| CN(CCCNC(=O)c1nn(-c2ccccc2)c2c1Cc1ccccc1-2)CCCNC(=O)c1nn(-c2ccccc2)c2c1Cc1ccccc1-2 | 2.77 | 3.21 | 4.22 | 2.46 | 3.26 | 2.99 | 1.85 | 3.22 | – | 3.26 | – | – | – | – | – | – | – | – | – |
| Cc1c2ccccc2cc2cccc[n+]12 | > 100 | > 100 | > 100 | – | > 100 | > 100 | – | > 100 | 53 | > 100 | – | – | – | – | – | – | – | – | – |
| c1ccc(C[N+]23C(CC[C@H]2c2ccccc2)CC[C@H]3c2ccccc2)cc1 (some centres not stated) | – | – | 26.4 | > 100 | – | > 100 | > 100 | > 100 | 78 | – | – | – | – | – | – | – | – | – | – |
| COc1ccc2c3c([nH]c2c1)[C@H](C=C(C)C)N1C(=O)[C@@H]2CCCN2C(=O)[C@@H]1C3 | > 100 | > 100 | > 100 | > 100 | > 100 | > 100 | > 100 | > 100 | > 100 | > 100 | – | – | – | – | – | – | – | – | – |
| CCCCSCCC(N)P(=O)(O)O (configuration not stated) | > 100 | – | > 100 | > 100 | – | > 100 | > 100 | > 100 | – | > 100 | – | – | – | – | – | – | – | – | – |
| C[C@]12O[C@@]3(C)O[C@@]3(C)[C@]3(C)O[C@]3(C)[C@@]1(C)O2 | – | > 100 | – | > 100 | > 100 | > 100 | > 100 | > 100 | > 100 | – | – | – | – | – | – | – | – | – | – |
| Fc1c(F)c(F)c(CSc2nc3ccccc3[nH]2)c(F)c1F | > 100 | > 100 | > 100 | > 100 | > 100 | > 100 | > 100 | > 100 | > 100 | > 100 | – | – | – | – | – | – | – | – | – |
| CC(CCCCNC(=O)OC(C)(C)C)NC(=O)NC(C)CCCCNC(=O)OC(C)(C)C (configuration not stated) | – | > 100 | – | > 100 | > 100 | > 100 | > 100 | > 100 | > 100 | > 100 | – | – | – | – | – | – | – | – | – |
| CCCC(=O)Nc1cc(/C=C/C(=O)N2CC(CCl)c3c2cc(OC(C)=O)c2[nH]cc(C)c32)n(C)c1 (configuration not stated) | – | 0.00227 | 0.00762 | – | 4.23e-05 | > 0.0759 | 0.0213 | – | 0.00247 | 0.000419 | – | – | – | – | – | – | – | – | – |
